# Test results from US6423689B1, “Peptidyl calcium channel blockers” (Warner-Lambert Company, priority 1997, dated 2002).
# Tests used:
# [1] = test system: L-type Ca2+ channels in GH3 cells; test: Inhibition of L-type calcium flux in GH3 cells (Indo-1 fluorescence); type: cell-based, rat
# Description: Measurement of L-type Ca^2+ Channel Blocking Potencies of Compounds in GH3 Cells Using the Fluorescent Ca^2+ Indicator Indo-1
# The GH3 rat pituitary cell line was obtained from the American Type Culture Collection (Rockville, Md.). Cells were grown in Ham's F-10 medium with 15% horse serum, 2.5% fetal bovine serum (FBS), and […] (Gibco, Gaithersburg, Md.). Confluent cells were detached using 0.5 mM EDTA and loaded with 5 μM Indo-acetoxymethyl ester (Molecular Probes, Eugene, Oreg.) in 1% bovine serum albumin (BSA) containing assay buffer (10 mM HEPES/Tris pH 7.4 in Hank's Balanced Salt Solution without bicarbonate or phenol red) for 60 minutes at 30° C. Loaded cells were washed twice, resuspended (approx. 10^7 cells/mL) in assay buffer containing 0.5% BSA, and kept on ice until use (<3 hrs). Different concentrations of the test compounds (60 μL in dimethyl sulfoxide) or controls were added to 5.94 mL of assay buffer containing approximately 3×10^6 loaded cells, and the samples were incubated for 10 minutes at 30° C. After incubation, samples were aliquoted into 3 cuvettes, and their fluorescence was measured with a Photon Technology International (PTI, South Brunswick, N.J.) Model RF-F3004 spectrofluorometer thermostatted at 30° C. Excitation was set at 350 nm and dual emissions were recorded at 400 and 490 nm. Basal emission signals were acquired for 20 seconds, followed by the depolarization of cells by the addition of 200 μL of a stimulation solution (1 M KCl, 68 mM CaCl2) to the stirred cuvette. Emission signals were acquired for an additional 50 seconds after depolarization. Ratio of emission signals (F400 nm/F490 nm), which is proportional to intracellular Ca^2+ concentration, was plotted against time, and the difference between the emission ratio 50 seconds after stimulation and its basal value (before stimulation) was determined. Values obtained in this way were considered as measures of depolarization-induced Ca-flux through L-type channels and plotted as a function of drug concentration. IC50 values of test compounds were calculated by fitting a four-parameter logistic function to the data using the least squares method.
melting point [°C],SMILES,IC50 [1] [µM]
–,CC(C)C[C@H](NC(=O)N1CCCCCC1)C(=O)N[C@@H](Cc1ccc(OCc2ccccc2)cc1)C(=O)OC(C)(C)C [Example 1],4.48
–,CC(C)(C)OC(=O)[C@H](Cc1ccc(OCc2ccccc2)cc1)NC(=O)[C@H](Cc1ccccc1)NC(=O)N1CCCCCC1 [Example 16],4.3
120 to 122,"CC(C)C[C@H](NC(=O)N1CCCCCC1)C(=O)N[C@@H](Cc1ccc(C#CC2(O)CCCCC2)cc1)C(=O)NC(C)(C)C [Example 138, [S-(R*,R*)]-Azepane-1-carboxylic acid (1-({-tert-butylcarbamoyl-2-[4-(1-hydroxy-cyclohexylethynyl)-phenyl]-ethylcarbamoyl}-3-methyl-butyl)-amide]",–
95 to 96,"CC(C)C[C@H](NC(=O)N1CCCCCC1)C(=O)N[C@@H](Cc1ccc(C=Cc2ccccc2)cc1)C(=O)NC(C)(C)C [Example 141, [S-(R*,R*)]-Azepane-1-carboxylic acid {1-[1-tert-butylcarbamoyl-2-(4-styryl-phenyl)-ethylcarbamoyl]-3-methyl-butyl}-amide]",–
